Results reported in US7964531B2, “3-phenoxy-4-pyridazinol derivatives and herbicidal composition containing the same” (Mitsui Chemicals Agro, Inc., priority 2001, dated 2011).

What was measured:
Format in all cases: in vivo
Sagittaria pygmaea = assay: Test Example 4: herbicidal effects of mixed wettable powder, paddy-field pot test; settings: after 25 days
Experimental: (§1) Paddy filed soil was filled in 1/5000 are Wagner pot, seeds of barnyardgrass (Echinochloa oryzicola Vasing.), Scirpus joncoides and annual broad-leaved weeds (Lindernia spp. and Rotala indica) which are awaken from dormancy were mixed at the surface layer of 1 cm. Also, tubers of Cyperus serotinus, Sagittaria pygmaea and Eleocharis kuroguwai which are awaken from dormancy were planted, and further seedlings of paddy-field rice at 2.2-leaf stage were transplanted and they were grown under the flooded condition in a greenhouse. After 3 days from the transplanting, a predetermined chemical dosage of the wettable powder prepared in accordance with Preparation example 5 was diluted with water, and applied to the pot. After 25 days, herbicidal effects and crop injury against transplanted paddy-field rice were judged according to the following judgment standard, and the results were shown in Table 5. Incidentally, “-” in the table means a composition containing no effective ingredient.
(§2) Judgment Standard • 0: Growth-inhibition rate; 0 to 15% • 1: Growth inhibition rate; 16 to 35% • 2: Growth inhibition rate; 36 to 55% • 3: Growth inhibition rate; 56 to 75% • 4: Growth inhibition rate; […] • 5: Growth inhibition rate; 96 to 100%.

Cyperus serotinus [1] = assay: as above; settings: after 25 days
Experimental: as §1, §2

[2] = test system: barnyardgrass (Echinochloa oryzicola Vasing.); assay: as above; settings: after 25 days
Experimental: as §1, §2

Eleocharis kuroguwai = assay: as above; settings: after 25 days
Experimental: as §1, §2

Scirpus joncoides [3] = assay: as above; settings: after 25 days
Experimental: as §1, §2

[4] = test system: annual broad-leaved weeds (Lindernia spp. and Rotala indica); assay: as above; settings: after 25 days
Experimental: as §1, §2

[5] = test system: transplanted paddy-field rice; assay: Test Example 4: crop injury against transplanted paddy-field rice; settings: after 25 days
Experimental: as §1, §2

[6] = test system: annual broad-leaved weeds (Lindernia spp., Rotala indica); assay: Test Example 1: herbicidal effects, paddy-field pot test; settings: wettable powder applied 3 days after transplanting, judged after 25 days
How it was run: (§3)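 Herbicidal effect and rice injury were graded on a six-step growth-inhibition scale (0: 0–10% to 5: 91–100%) at 25 days after pot application of water-diluted wettable powder, given 3 days post-transplant under flooded greenhouse conditions.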

Cyperus serotinus [7] = assay: as above; settings: wettable powder applied 3 days after transplanting, judged after 25 days
How it was run: as §3

[8] = test system: barnyardgrass (Echinochloa oryzicola Vasing.); assay: as above; settings: wettable powder applied 3 days after transplanting, judged after 25 days
How it was run: as §3

Scirpus joncoides [9] = assay: as above; settings: wettable powder applied 3 days after transplanting, judged after 25 days
How it was run: as §3

[10] = test system: transplanted paddy-field rice; assay: Test Example 1: crop injury against transplanted paddy-field rice; settings: wettable powder applied 3 days after transplanting, judged after 25 days
How it was run: as §3

SMILES | Herbicidal effects Broad leaf ([6]; chemical dosage 12.5 g/a) | Herbicidal effects Broad leaf ([6]; chemical dosage 25 g/a) | Herbicidal effects Cyperus serotinus (Cyperus serotinus [7]; chemical dosage 12.5 g/a) | Herbicidal effects Cyperus serotinus (Cyperus serotinus [7]; chemical dosage 25 g/a) | Herbicidal effects Barnyard grass ([8]; chemical dosage 12.5 g/a) | Herbicidal effects Barnyard grass ([8]; chemical dosage 25 g/a) | Herbicidal effects Scirpus joncoides (Scirpus joncoides [9]; chemical dosage 12.5 g/a) | Herbicidal effects Scirpus joncoides (Scirpus joncoides [9]; chemical dosage 25 g/a) | Crop injury against transplanted rice ([10]; chemical dosage 12.5 g/a) | Crop injury against transplanted rice ([10]; chemical dosage 25 g/a) | Herbicidal effects Broad leaf ([6]; chemical dosage 10 g/a) | Herbicidal effects Broad leaf ([6]; chemical dosage 20 g/a) | Herbicidal effects Cyperus serotinus (Cyperus serotinus [7]; chemical dosage 10 g/a) | Herbicidal effects Cyperus serotinus (Cyperus serotinus [7]; chemical dosage 20 g/a) | Herbicidal effects Barnyard grass ([8]; chemical dosage 10 g/a) | Herbicidal effects Barnyard grass ([8]; chemical dosage 20 g/a) | Herbicidal effects Scirpus joncoides (Scirpus joncoides [9]; chemical dosage 10 g/a) | Herbicidal effects Scirpus joncoides (Scirpus joncoides [9]; chemical dosage 20 g/a) | Crop injury against transplanted rice ([10]; chemical dosage 10 g/a) | Crop injury against transplanted rice ([10]; chemical dosage 20 g/a) | also measured
Cc1ccc(C(=O)COc2c(C(=O)c3c(Cl)ccc(C)c3Cl)c(C)nn2C)cc1 [Compound C, 2-[4-(2,4-dichloro-m-toluoyl)-1,3-dimethylpyrazol-5-yloxy]-4′-methyl-acetophenone, reference compound] | – | – | – | – | – | – | – | – | – | – | – | – | – | – | – | – | – | – | – | – | Herbicidal effects Sagittaria pygmaea (Sagittaria pygmaea; second compound alone 5 g/a): 4 (Growth inhibition rate; 7.6 to 95%); Herbicidal effects Sagittaria pygmaea (Sagittaria pygmaea; second compound alone 30 g/a): 5 (Growth inhibition rate; 96 to 100%); Herbicidal effects Cyperus serotinus (Cyperus serotinus [1]; second compound alone 5 g/a): 1 (Growth inhibition rate; 16 to 35%); Herbicidal effects Cyperus serotinus (Cyperus serotinus [1]; second compound alone 30 g/a): 4 (Growth inhibition rate; 7.6 to 95%); Herbicidal effects Barnyard grass ([2]; second compound alone 5 g/a): 3 (Growth inhibition rate; 56 to 75%); Herbicidal effects Barnyard grass ([2]; second compound alone 30 g/a): 5 (Growth inhibition rate; 96 to 100%); Herbicidal effects Eleocharis kuroguwai (Eleocharis kuroguwai; second compound alone 5 g/a): 0 (Growth-inhibition rate; 0 to 15%); Herbicidal effects Eleocharis kuroguwai (Eleocharis kuroguwai; second compound alone 30 g/a): 2 (Growth inhibition rate; 36 to 55%); Herbicidal effects Scirpus joncoides (Scirpus joncoides [3]; second compound alone 5 g/a): 2 (Growth inhibition rate; 36 to 55%); Herbicidal effects Scirpus joncoides (Scirpus joncoides [3]; second compound alone 30 g/a): 4 (Growth inhibition rate; 7.6 to 95%); Herbicidal effects Broad leaf ([4]; second compound alone 5 g/a): 5 (Growth inhibition rate; 96 to 100%); Herbicidal effects Broad leaf ([4]; second compound alone 30 g/a): 5 (Growth inhibition rate; 96 to 100%); Crop injury against transplanted rice ([5]; second compound alone 5 g/a): 0 (Growth-inhibition rate; 0 to 15%); Crop injury against transplanted rice ([5]; second compound alone 30 g/a): 0 (Growth-inhibition rate; 0 to 15%)
Cc1ccc(S(=O)(=O)Oc2c(C(=O)c3ccc(Cl)cc3Cl)c(C)nn2C)cc1 [Compound A, 4-(2,4-dichlorobenzoyl)-1,3-dimethyl-5-pyrazolyl-p-toluenesulfonate, reference compound] | – | – | – | – | – | – | – | – | – | – | – | – | – | – | – | – | – | – | – | – | Herbicidal effects Sagittaria pygmaea (Sagittaria pygmaea; second compound alone 5 g/a): 4 (Growth inhibition rate; 7.6 to 95%); Herbicidal effects Sagittaria pygmaea (Sagittaria pygmaea; second compound alone 30 g/a): 5 (Growth inhibition rate; 96 to 100%); Herbicidal effects Cyperus serotinus (Cyperus serotinus [1]; second compound alone 5 g/a): 2 (Growth inhibition rate; 36 to 55%); Herbicidal effects Cyperus serotinus (Cyperus serotinus [1]; second compound alone 30 g/a): 4 (Growth inhibition rate; 7.6 to 95%); Herbicidal effects Barnyard grass ([2]; second compound alone 5 g/a): 3 (Growth inhibition rate; 56 to 75%); Herbicidal effects Barnyard grass ([2]; second compound alone 30 g/a): 5 (Growth inhibition rate; 96 to 100%); Herbicidal effects Eleocharis kuroguwai (Eleocharis kuroguwai; second compound alone 5 g/a): 0 (Growth-inhibition rate; 0 to 15%); Herbicidal effects Eleocharis kuroguwai (Eleocharis kuroguwai; second compound alone 30 g/a): 2 (Growth inhibition rate; 36 to 55%); Herbicidal effects Scirpus joncoides (Scirpus joncoides [3]; second compound alone 5 g/a): 3 (Growth inhibition rate; 56 to 75%); Herbicidal effects Scirpus joncoides (Scirpus joncoides [3]; second compound alone 30 g/a): 4 (Growth inhibition rate; 7.6 to 95%); Herbicidal effects Broad leaf ([4]; second compound alone 5 g/a): 4 (Growth inhibition rate; 7.6 to 95%); Herbicidal effects Broad leaf ([4]; second compound alone 30 g/a): 5 (Growth inhibition rate; 96 to 100%); Crop injury against transplanted rice ([5]; second compound alone 5 g/a): 0 (Growth-inhibition rate; 0 to 15%); Crop injury against transplanted rice ([5]; second compound alone 30 g/a): 0 (Growth-inhibition rate; 0 to 15%)
Cc1ccc(C)c(Oc2nnc(Cl)cc2O)c1 [Example 205] | 5 (Growth inhibition rate; 91 to 100%) | 5 (Growth inhibition rate; 91 to 100%) | 5 (Growth inhibition rate; 91 to 100%) | 5 (Growth inhibition rate; 91 to 100%) | 0 (Growth inhibition rate; 0 to 10%) | 1 (Growth inhibition rate; 11 to 30%) | 5 (Growth inhibition rate; 91 to 100%) | 5 (Growth inhibition rate; 91 to 100%) | 0 (Growth inhibition rate; 0 to 10%) | 0 (Growth inhibition rate; 0 to 10%) | – | – | – | – | – | – | – | – | – | – | –
Cc1ccc(C2CC2)c(Oc2nnc(Cl)cc2O)c1C [Example 296] | – | – | – | – | – | – | – | – | – | – | 5 (Growth inhibition rate; 91 to 100%) | 5 (Growth inhibition rate; 91 to 100%) | 5 (Growth inhibition rate; 91 to 100%) | 5 (Growth inhibition rate; 91 to 100%) | 1 (Growth inhibition rate; 11 to 30%) | 2 (Growth inhibition rate; 31 to 50%) | 5 (Growth inhibition rate; 91 to 100%) | 5 (Growth inhibition rate; 91 to 100%) | 0 (Growth inhibition rate; 0 to 10%) | 0 (Growth inhibition rate; 0 to 10%) | –
Oc1cc(Cl)nnc1Oc1cc(F)ccc1C1CC1 [Example 216] | – | – | – | – | – | – | – | – | – | – | 5 (Growth inhibition rate; 91 to 100%) | 5 (Growth inhibition rate; 91 to 100%) | 5 (Growth inhibition rate; 91 to 100%) | 5 (Growth inhibition rate; 91 to 100%) | 4 (Growth inhibition rate; 71 to 90%) | 4 (Growth inhibition rate; 71 to 90%) | 5 (Growth inhibition rate; 91 to 100%) | 5 (Growth inhibition rate; 91 to 100%) | 0 (Growth inhibition rate; 0 to 10%) | 2 (Growth inhibition rate; 31 to 50%) | –
CSc1c(C)cc(C)cc1Oc1nnc(Cl)cc1O [Example 289] | 4 (Growth inhibition rate; 71 to 90%) | 5 (Growth inhibition rate; 91 to 100%) | 4 (Growth inhibition rate; 71 to 90%) | 5 (Growth inhibition rate; 91 to 100%) | 0 (Growth inhibition rate; 0 to 10%) | 0 (Growth inhibition rate; 0 to 10%) | 4 (Growth inhibition rate; 71 to 90%) | 5 (Growth inhibition rate; 91 to 100%) | 0 (Growth inhibition rate; 0 to 10%) | 0 (Growth inhibition rate; 0 to 10%) | – | – | – | – | – | – | – | – | – | – | –
Cc1cccc(Oc2nnc(Cl)cc2O)c1C1CC1 [Example 166] | – | – | – | – | – | – | – | – | – | – | 5 (Growth inhibition rate; 91 to 100%) | 5 (Growth inhibition rate; 91 to 100%) | 5 (Growth inhibition rate; 91 to 100%) | 5 (Growth inhibition rate; 91 to 100%) | 0 (Growth inhibition rate; 0 to 10%) | 1 (Growth inhibition rate; 11 to 30%) | 5 (Growth inhibition rate; 91 to 100%) | 5 (Growth inhibition rate; 91 to 100%) | 0 (Growth inhibition rate; 0 to 10%) | 0 (Growth inhibition rate; 0 to 10%) | –
CC(C)c1cccc(Br)c1Oc1nnc(Cl)cc1O [Example 19] | 5 (Growth inhibition rate; 91 to 100%) | 5 (Growth inhibition rate; 91 to 100%) | 5 (Growth inhibition rate; 91 to 100%) | 5 (Growth inhibition rate; 91 to 100%) | 0 (Growth inhibition rate; 0 to 10%) | 1 (Growth inhibition rate; 11 to 30%) | 4 (Growth inhibition rate; 71 to 90%) | 4 (Growth inhibition rate; 71 to 90%) | 1 (Growth inhibition rate; 11 to 30%) | 1 (Growth inhibition rate; 11 to 30%) | – | – | – | – | – | – | – | – | – | – | –
O=S(=O)(Oc1cc(Cl)nnc1Oc1ccccc1C1CC1)C(F)(F)F [Example 26] | – | – | – | – | – | – | – | – | – | – | 5 (Growth inhibition rate; 91 to 100%) | 5 (Growth inhibition rate; 91 to 100%) | 5 (Growth inhibition rate; 91 to 100%) | 5 (Growth inhibition rate; 91 to 100%) | 4 (Growth inhibition rate; 71 to 90%) | 4 (Growth inhibition rate; 71 to 90%) | 5 (Growth inhibition rate; 91 to 100%) | 5 (Growth inhibition rate; 91 to 100%) | 0 (Growth inhibition rate; 0 to 10%) | 0 (Growth inhibition rate; 0 to 10%) | –
